Source: patent US20090239944A1, “Novel Use of Organic Compounds” (priority 2005, published 2009)

Columns and labels:
C3H10T1/2 cells [1] = assay: Differentiation of adipocytes (oil Red O staining, absorbance at 540 nm); type: cell-based; conditions: for Differentiation of the cells into adipocytes (result in words): co-treatment with insulin, compared with insulin alone; for Mean OD ± SEM (oil Red O, 540 nm): 10-day treatment
Experimental: C3H10T1/2 cells were grown to confluence as described in Example 1, then treated for 10 days with insulin alone (negative control) or with a mixture of insulin and the compound of the formula I-1 at different concentrations (see Table 2), with re-feeding with fresh medium and compounds every 48-h. After 10-days of treatment, the cells were stained with oil Red O as follows: cells were washed 2× in PBS and fixed in 10% formalin at room temperature for 1 h. After removal of formalin, 200 μl of oil Red O staining solution (3:2 mixture of 0.5% w/v oil Red O stock solution and water) was applied to each well. The cells were incubated for 20 min at room temperature, washed twice in 2×PBS and incubated for 10 min with 300 μl of isopropanol/well for oil Red O extraction. Quantification of oil Red O was determined by measuring absorbance at 540 nm (mean OD). […] C3H10T1/2 cells were grown and treated as described in Example 4 with the exception that the compound of the formula I-2 was used instead of the compound of the formula I-1. The measurement of adipocyte differentiation using the oil Red O assay was performed as described in Example 4. […] C3H10T1/2 cells were grown and treated as described in Example 4 with the exception that the compound of the formula I-3 was used instead of the compound of the formula I-1. The measurement of adipocyte differentiation using the oil Red O assay was performed as described in Example 4.

C3H10T1/2 cells [2] = assay: Glucose uptake of adipocytes (radioactive 2-deoxyglucose, basal, absence of insulin); type: cell-based; conditions: 48-h treatment; for Basal glucose uptake: absence of insulin, ± SEM, DMSO control = 100%; for Basal glucose uptake (result in words): different concentrations
Experimental: C3H10T1/2 cells (ATCC CCL-226) were grown for 5 days to confluence in DMEM supplemented with 10% FBS medium and induced with a mixture of insulin, dexamethasone and 3-isobutyl-1-methylxanthine to differentiate into adipocytes. Nine days after the beginning of induction, cells were treated for 48-h with the compound of the formula I-1 at different concentrations as shown in Table 1. Glucose uptake was determined using radioactive 2-deoxyglucose (10 μM 2-DG in HBS+0.5 μCi/ml of 3-[H]-2-DG), measuring glucose uptake in the absence of insulin. Basal glucose uptake was increased by 48-h treatment with the compound of the formula I-1 in a dose-dependent manner (Table 1). Growing, induction and treatment of C3H10T1/2 cells were exactly as described in Example 1, with the exception that the compound of the formula I-3 at different concentrations was used instead of the compound of the formula I-1. […] Control: C3H10T1/2 cells treated for 48 h with DMSO at the same concentration as compound-treated cells and set at 100%

C57BLKS/J db/db mice = assay: Glucose tolerance, 14-day study in db/db mice (blood glucose, OGTT, FFA); type: in vivo
Experimental: The efficacy of the compound of the formula I-1 on glucose tolerance was tested in a 14-day study in C57BLKS/J db/db mice (n=10/group), a model of late type 2 diabetes mellitus with severe hyperglycemia.
Male db/db mice were obtained from Jackson Laboratory (Bar Harbor, Me., USA). Adult mice aged 8 weeks were used in the experiment. Mice were housed individually in plastic cages with bedding and allowed free access to standard rodent food and tap water. The animal rooms were controlled for temperature (24° C.), humidity (55%), and light (12-h light-dark cycle). The animals were randomized in two groups and the compound of the formula I-1 was administered orally to one of the groups for 14 days at a dose of 200 mg/kg BW/day. After 14 days of treatment the concentration of glucose was determined in blood from fed animals, i.e., animals which were not restricted from food. After a period of 10 days of treatment an oral glucose tolerance test (OGTT) was performed. For the OGTT mice were fasted overnight and then a 1-g glucose/kg BW solution was orally administered. Blood samples were taken before and 15, 30, 45, 60, 90, 120, 150, 180 min after the glucose challenge for determination of blood glucose levels and then the area under the curve (AUC) was determined. Blood glucose was measured by a glucose analyzer (Glucotrend Premium, Roche Diagnostics, Rotkreuz, Switzerland). The glucose and the free fatty acid (FFA) levels of fed animals (see above) were lowered after 14 days of treatment with the compound of the formula I-1. After 10 days of treatment with the compound of the formula I-1 the glucose levels of fasted animals, i.e., animals with an overnight fasting (see above) were decreased as compared to the untreated control group.

[3] = compound 1 × 10^−5 M + insulin 1 × 10^−7 M
[4] = after 14 days of treatment, 200 mg/kg BW/day orally

COc1ccc(C(=O)/C=C/c2cccc(OC(=O)/C=C/c3ccccc3)c2)cc1 [I-2]
Differentiation of the cells into adipocytes (result in words) (C3H10T1/2 cells [1]): higher differentiation of the cells into adipocytes than insulin alone
Mean OD ± SEM (oil Red O, 540 nm) (C3H10T1/2 cells [1]; [3]): 0.45 ± 0.037

COc1ccc(/C=C/C(=O)c2ccc(OC(=O)c3ccccc3)cc2)cc1OC [I-3]
Differentiation of the cells into adipocytes (result in words) (C3H10T1/2 cells [1]): higher differentiation of the cells into adipocytes than insulin alone
Mean OD ± SEM (oil Red O, 540 nm) (C3H10T1/2 cells [1]; [3]): 0.53 ± 0.025
Mean OD ± SEM (oil Red O, 540 nm) (C3H10T1/2 cells [1]; compound 2 × 10^−4 M + insulin 1 × 10^−7 M): 0.34 ± 0.087
Mean OD ± SEM (oil Red O, 540 nm) (C3H10T1/2 cells [1]; compound 5 × 10^−5 M + insulin 1 × 10^−7 M): 0.53 ± 0.017
Basal glucose uptake (C3H10T1/2 cells [2]; 1 × 10^−5 M): 133.28 ± 23.4 % of control
Basal glucose uptake (C3H10T1/2 cells [2]; 1 × 10^−6 M): 105.37 ± 2.21 % of control
Basal glucose uptake (C3H10T1/2 cells [2]; 2 × 10^−4 M): 142.84 ± 18.05 % of control
Basal glucose uptake (C3H10T1/2 cells [2]; 5 × 10^−5 M): 116.17 ± 15.96 % of control
Basal glucose uptake (result in words) (C3H10T1/2 cells [2]): increase

Insulin: insulin alone, negative control of the adipocyte differentiation test
Mean OD ± SEM (oil Red O, 540 nm) (C3H10T1/2 cells [1]; insulin 1 × 10^−7 M alone (negative control)): 0.28 ± 0.03

CC1(COc2ccc(CC3SC(=O)NC3=O)cc2)CCCCC1 (centres unmarked) [Ciglitazone, ciglitazone, reference compound]
Basal glucose uptake (C3H10T1/2 cells [2]; 5 × 10^−5 M): 496.178 ± 61.86 % of control

COc1ccc(C(=O)/C=C/c2c(CCN(C)C(C)=O)cc3c(c2OC)OCO3)cc1 [I-1]
Differentiation of the cells into adipocytes (result in words) (C3H10T1/2 cells [1]): higher differentiation of the cells into adipocytes than insulin alone
Mean OD ± SEM (oil Red O, 540 nm) (C3H10T1/2 cells [1]; [3]): 0.69 ± 0.019
Basal glucose uptake (C3H10T1/2 cells [2]; 1 × 10^−5 M): 94.58 ± 0.95 % of control
Basal glucose uptake (C3H10T1/2 cells [2]; 1 × 10^−6 M): 97.6 ± 22.9 % of control
Basal glucose uptake (C3H10T1/2 cells [2]; 2.4 × 10^−5 M): 128.6 ± 0.89 % of control
Basal glucose uptake (C3H10T1/2 cells [2]; 5 × 10^−4 M): 194.058 ± 0.05 % of control
Basal glucose uptake (result in words) (C3H10T1/2 cells [2]): increased
glucose AUC of an OGTT (result in words) (C57BLKS/J db/db mice; 1 g glucose/kg body weight, day 10): significantly reduced
Glucose AUC (C57BLKS/J db/db mice; OGTT (1 g glucose/kg BW) on day 10, 0-180 min, 200 mg/kg BW/day orally, control 69673): 54295
glucose levels of fasted animals (result in words) (C57BLKS/J db/db mice; after 10 days of treatment, compared to the untreated control group): decreased
free fatty acid (FFA) levels of fed animals (result in words) (C57BLKS/J db/db mice; [4]): lowered
glucose levels of fed animals (result in words) (C57BLKS/J db/db mice; [4]): lowered
blood glucose levels during the OGTT (result in words) (C57BLKS/J db/db mice; compared with the control group, 15-180 min after glucose challenge): lower at all time points
Blood Glucose Fasted (C57BLKS/J db/db mice; db/db mice, 200 mg/kg BW/day orally, after 10 days, overnight fasting, control 175): 135 mg/dL
FFA (C57BLKS/J db/db mice; db/db mice, 200 mg/kg BW/day orally, after 14 days, fed animals, control 15.95): 12.38 mg/dL
Blood Glucose Fed (C57BLKS/J db/db mice; db/db mice, 200 mg/kg BW/day orally, after 14 days, fed animals, control 859): 771 mg/dL
